Test results from publication PMC6920857, “Novel Series of Methyl 3-(Substituted Benzoyl)-7-Substituted-2-Phenylindolizine-1-Carboxylates as Promising Anti-Inflammatory Agents: Molecular Modeling Studies” (Biomolecules, 2019).

Tests used:
[1] = target: T1, human recombinant COX-2 enzyme (Homo sapiens, UniProt P35354); assay: In vitro COX-2 inhibition assay
T1 sequence (P35354 18-604): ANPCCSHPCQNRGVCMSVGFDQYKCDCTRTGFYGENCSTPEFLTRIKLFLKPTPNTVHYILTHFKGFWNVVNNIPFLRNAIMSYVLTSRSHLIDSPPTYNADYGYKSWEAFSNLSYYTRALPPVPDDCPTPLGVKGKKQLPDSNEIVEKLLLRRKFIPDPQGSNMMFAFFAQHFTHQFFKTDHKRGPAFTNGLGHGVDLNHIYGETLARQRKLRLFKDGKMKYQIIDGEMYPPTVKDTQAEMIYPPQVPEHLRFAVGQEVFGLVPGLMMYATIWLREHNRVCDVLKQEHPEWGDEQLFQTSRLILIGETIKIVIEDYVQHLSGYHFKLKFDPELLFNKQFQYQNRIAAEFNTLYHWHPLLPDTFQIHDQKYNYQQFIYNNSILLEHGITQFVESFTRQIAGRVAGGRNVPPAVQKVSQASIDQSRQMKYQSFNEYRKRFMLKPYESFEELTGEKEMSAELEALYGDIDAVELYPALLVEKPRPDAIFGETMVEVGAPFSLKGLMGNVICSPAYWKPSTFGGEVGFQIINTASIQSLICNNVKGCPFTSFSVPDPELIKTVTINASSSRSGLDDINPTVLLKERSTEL

| IC50 [1] [µM] | melting point [°C] | Structure (SMILES) |
| --- | --- | --- |
| 41.59 ± 0.03 | 173 to 174 | COC(=O)c1c(-c2ccccc2)c(C(=O)c2ccccc2)n2ccc(C)cc12 [Compound 4a, Methyl 3-Benzoyl-7-Methyl-2-Phenylindolizine-1-Carboxylate] |
| 27.08 ± 0.03 | 167 to 168 | COC(=O)c1c(-c2ccccc2)c(C(=O)c2ccc(F)cc2)n2ccc(C)cc12 [Compound 4b, Methyl 3-(4-Fluorobenzoyl)-7-Methyl-2-Phenylindolizine-1-Carboxylate] |
| 38.11 ± 0.03 | 154 to 155 | COC(=O)c1c(-c2ccccc2)c(C(=O)c2ccc(Cl)cc2)n2ccc(C)cc12 [Compound 4c, Methyl 3-(4-Chlorobenzoyl)-7-Methyl-2-Phenylindolizine-1-Carboxylate] |
| 37.66 ± 0.03 | 137 to 138 | COC(=O)c1c(-c2ccccc2)c(C(=O)c2ccc(Br)cc2)n2ccc(C)cc12 [Compound 4d, Methyl 3-(4-Bromobenzoyl)-7-Methyl-2-Phenylindolizine-1-Carboxylate] |
| 6.71 ± 0.03 | 235 to 236 | COC(=O)c1c(-c2ccccc2)c(C(=O)c2ccc(C#N)cc2)n2ccc(C#N)cc12 [Compound 4e, Methyl 7-Cyano-3-(4-Cyanobenzoyl)-2-Phenylindolizine-1-Carboxylate] |
| 13.55 ± 0.03 | 208 to 209 | COC(=O)c1c(-c2ccccc2)c(C(=O)c2ccc(Br)cc2)n2ccc(C#N)cc12 [Compound 4f, Methyl 3-(4-Bromobenzoyl)-7-Cyano-2-Phenylindolizine-1-Carboxylate] |
| 9.62 ± 0.03 | 166 to 167 | COC(=O)c1c(-c2ccccc2)c(C(=O)c2ccc(OC)cc2)n2ccc(C#N)cc12 [Compound 4g, Methyl 7-Cyano-3-(4-Methoxybenzoyl)-2-Phenylindolizine-1-Carboxylate] |
